We go through 58 compounds from the RepoRT retention time repository.

Molecules are shown by their SMILES.

This series is described as follows: HILIC, HILICON iHILIC-(P) Classic, HILIC, PEEK, 50 × 2.1 mm, 5 µm, 45 °C, 0.12 mL/min, estimated dead time 0.92 min; A: water + 20 mM ammonium carbonate; B: acetonitrile; gradient (min/%B) 0/90 1/90 21/20 21.5/20 26.5/20 27.5/90 35/90. The following applies: stereoisomer not certain.
On to `NCCCC(N)C(=O)O` (stereo not drawn) [Ornithine], for which the LC retention time is 18.1 min. As for `NC(=O)c1ccc[n+](C2OC(COP(=O)(O)OP(=O)(O)OCC3OC(n4cnc5c(N)ncnc54)C(OP(=O)(O)O)C3O)C(O)C2O)c1` (stereo not drawn) [NADP], the LC retention time was 13.5 min. `O=P(O)(O)OCC1OC(O)(COP(=O)(O)O)C(O)C1O` (stereo not drawn) [Fructose-1,6-bisphosphate]: the LC retention time was 16.3 min. Then `Nc1nc2ncc(CNc3ccc(C(=O)NC(CCC(=O)O)C(=O)O)cc3)nc2c(=O)[nH]1` (stereo not drawn) [Folic Acid], with 14.3 min; and `NC(Cc1ccc(O)cc1)C(=O)O` (stereo not drawn) [Tyrosine], with 6.98 min; and `CCC(C)C(N)C(=O)O` (stereo not drawn) [Isoleucine], with 5.72 min. Take `NC(=O)c1ccc[n+](C2OC(COP(=O)([O-])O)C(O)C2O)c1` (stereo not drawn) [NMN]: the LC retention time was 9.43 min. In the case of `O=C(O)C1(O)CC(O)C(O)C(O)C1` (stereo not drawn) [Quinic Acid], the LC retention time is 6.43 min. For the compound `O=C(CO)COP(=O)(O)O` [Triose phosphate], the LC retention time is 11.3 min. With `Nc1ncnc2nc[nH]c12` [Adenine], the LC retention time is 3.42 min.

As to `O=C(O)c1cccnc1` [Nicotinic acid], the LC retention time was 1.66 min. Then `O=c1ccn(C2OC(COP(=O)(O)O)C(O)C2O)c(=O)[nH]1` (stereo not drawn) [UMP], with 9.52 min; and `Nc1ncnc2c1ncn2C1OC(COP(=O)(O)OP(=O)(O)OP(=O)(O)O)C(O)C1O` (stereo not drawn) [ATP], with 13.6 min; and `Nc1ncnc2c1ncn2C1OC(COP(=O)(O)O)C(O)C1O` (stereo not drawn) [AMP], with 8.49 min. Then `NC(=O)C1=CN(C2OC(COP(=O)(O)OP(=O)(O)OCC3OC(n4cnc5c(N)ncnc54)C(OP(=O)(O)O)C3O)C(O)C2O)C=CC1` (stereo not drawn) [NADPH], with 16.8 min; and `Nc1nc2c(ncn2C2OC(CO)C(O)C2O)c(=O)[nH]1` (stereo not drawn) [Guanosine], with 6.69 min. Then `NC(=O)CCC(N)C(=O)O` (stereo not drawn) [Glutamine], with 8.36 min; and `O=P(O)(O)OCC(O)CO` (stereo not drawn) [Glycerol-3-phosphate], with 10.9 min. As for `NC(=O)c1ccc[n+](C2OC(COP(=O)(O)OP(=O)(O)OCC3OC(n4cnc5c(N)ncnc54)C(O)C3O)C(O)C2O)c1` (stereo not drawn) [NAD], the LC retention time is 8.93 min. Then `Nc1nc2c(ncn2C2OC(COP(=O)(O)O)C(O)C2O)c(=O)[nH]1` (stereo not drawn) [GMP], with 14.2 min; and `CC(O)C(N)C(=O)O` (stereo not drawn) [Threonine], with 8.21 min. `Cc1ncc(C[n+]2csc(CCO)c2C)c(N)n1` [Thiamine]: the LC retention time was 13 min.

For the compound `NC(Cc1ccccc1)C(=O)O` (stereo not drawn) [Phenylalanine], the LC retention time was 4.97 min. Turning to `Nc1ccn(C2OC(COP(=O)(O)OP(=O)(O)O)C(O)C2O)c(=O)n1` (stereo not drawn) [CDP], the LC retention time was 13.2 min. Consider `O=c1ccn(C2OC(COP(=O)(O)OP(=O)(O)OP(=O)(O)O)C(O)C2O)c(=O)[nH]1` (stereo not drawn) [UTP], for which the LC retention time is 14.3 min. For `NC(=O)CC(N)C(=O)O` (stereo not drawn) [Asparagine], the LC retention time was 10.8 min.

Regarding `CC(C)CC(N)C(=O)O` (stereo not drawn) [Leucine], the LC retention time is 5.45 min. As to `CC(O)C(=O)O` (stereo not drawn) [Lactic Acid], the LC retention time was 2.81 min. Turning to `Nc1ccn(C2OC(COP(=O)(O)O)C(O)C2O)c(=O)n1` (stereo not drawn) [CMP], the LC retention time was 10.9 min. Then `NC(Cc1c[nH]c2ccccc12)C(=O)O` (stereo not drawn) [Tryptophan], with 6.18 min; and `O=C(O)CC(O)C(=O)O` (stereo not drawn) [Malic Acid], with 13.1 min; and `Nc1ncnc2c1ncn2C1OC(CO)C(O)C1O` (stereo not drawn) [Adenosine], with 3.57 min. `O=C1OC(C(O)CO)C(O)=C1O` (stereo not drawn) [Ascorbic Acid]: the LC retention time was 9.37 min. As for `CC(C)C(N)C(=O)O` (stereo not drawn) [Valine], the LC retention time was 6.71 min. As for `CC(=O)SCCNC(=O)CCNC(=O)C(O)C(C)(C)COP(=O)(O)OP(=O)(O)OCC1OC(n2cnc3c(N)ncnc32)C(O)C1OP(=O)(O)O` (stereo not drawn) [Acetyl-CoA], the LC retention time is 8.69 min.

Consider `O=C(O)C(CO)OP(=O)(O)O` (stereo not drawn) [Phosphoglyceric acid A], for which the LC retention time is 13.5 min. Consider `O=C(O)C1CCCN1` (stereo not drawn) [Proline], for which the LC retention time was 6.81 min. Then `NC(CCC(=O)O)C(=O)O` (stereo not drawn) [Glutamic acid], with 9.69 min; and `Nc1nc2c(ncn2C2OC(COP(=O)(O)OP(=O)(O)O)C(O)C2O)c(=O)[nH]1` (stereo not drawn) [GDP], with 15.2 min. As to `NC(CO)C(=O)O` (stereo not drawn) [Serine], the LC retention time is 8.59 min. As for `Nc1ccn(C2OC(CO)C(O)C2O)c(=O)n1` (stereo not drawn) [Cytidine], the LC retention time was 5.92 min.

Turning to `NC(CSSCC(N)C(=O)O)C(=O)O` (stereo not drawn) [Cystine], the LC retention time is 11.6 min. Consider `O=C(O)CCC(=O)O` [Succinic Acid], for which the LC retention time was 11.8 min.

Turning to `NCCCCC(N)C(=O)O` (stereo not drawn) [Lysine], the LC retention time is 18.8 min. Take `NC(=O)C1=CN(C2OC(COP(=O)(O)OP(=O)(O)OCC3OC(n4cnc5c(N)ncnc54)C(O)C3O)C(O)C2O)C=CC1` (stereo not drawn) [NADH]: the LC retention time was 9.33 min. For `Nc1ncnc2c1ncn2C1OC(COP(=O)(O)OP(=O)(O)O)C(O)C1O` (stereo not drawn) [ADP] the value was 12.2 min. On to `NC(CCC(=O)NC(CSSCC(NC(=O)CCC(N)C(=O)O)C(=O)NCC(=O)O)C(=O)NCC(=O)O)C(=O)O` (stereo not drawn) [GSSG], for which the LC retention time was 15.3 min. For `Nc1nc2c(ncn2C2OC(COP(=O)(O)OP(=O)(O)OP(=O)(O)O)C(O)C2O)c(=O)[nH]1` (stereo not drawn) [GTP] the value was 17.1 min; for `O=c1ccn(C2OC(COP(=O)(O)OP(=O)(O)O)C(O)C2O)c(=O)[nH]1` (stereo not drawn) [UDP], 12.2 min. For `O=C(O)CC(O)(CC(=O)O)C(=O)O` [Citric acid] the value was 16.4 min. For `O=C(O)CCCCC1SCC2NC(=O)NC21` (stereo not drawn) [Biotin] the value was 3.35 min; for `CC(=O)NC1C(OP(=O)(O)OP(=O)(O)OCC2OC(n3ccc(=O)[nH]c3=O)C(O)C2O)OC(CO)C(O)C1O` (stereo not drawn) [UDP-GlcNAc], 11.7 min.

On to `O=C(O)CC(=O)O` [Malonic Acid], for which the LC retention time was 9.39 min. Then `NC(CCC(=O)NC(CS)C(=O)NCC(=O)O)C(=O)O` (stereo not drawn) [GSH], with 8.5 min.

`O=C(O)CC(C(=O)O)C(O)C(=O)O` (stereo not drawn) [Isocitric acid]: the LC retention time was 15.9 min.

As for `CC(=O)NC(CC(=O)O)C(=O)O` (stereo not drawn) [N-Acetylaspartic acid], the LC retention time is 9.96 min.

As to `CSCCC(N)C(=O)O` (stereo not drawn) [Methionine], the LC retention time is 5.91 min. For `C=C(OP(=O)(O)O)C(=O)O` [PEP], the LC retention time was 13.7 min.
